Test results: publication PMC12040169 (PLOS Biology, 2025)

Test: in vitro
Details: human, hela cells, % viability

SMILES	viability at 28.5 h, 10 µM [%]
COC(=O)COc1ccc(NC(=O)c2ccc([N+](=O)[O-])c(C)c2)cc1 [CBK268338]	103
CCOC(=O)C1CCCN(Cc2cccc(Cl)c2Cl)C1 (centres unmarked) [CBK307056]	85.2
O=C(NCCc1noc(CO)n1)N(Cc1ccsc1)C1CCCCC1 [CBK307273]	98.5
O=c1[nH]ccn1CCNc1ccc(-c2cccc(Cl)c2Cl)cn1 [CBK037745]	93.1
CCC(CO)Nc1cncc(-c2ccc(C(N)=O)cc2)n1 (centres unmarked) [CBK065577]	100
O=C(O)c1cccc(NS(=O)(=O)c2ccc3c(c2)OCCO3)c1 [CBK155697]	96.9
Cc1c(C(=O)C2=C(O)C(=O)N(Cc3cccnc3)C2c2cccnc2)cnn1-c1ccccc1 (centres unmarked) [CBK266543]	105
COc1ccc(C(=O)OC(C)(C)C)c(-c2cncc(NC3CCC(N)CC3)n2)c1 (centres unmarked) [CBK037922]	109
CC(C)n1cnnc1CN1CCN(c2ccc(C#N)cc2)CC1 [CBK307714]	106
CN(C)c1cccc(-c2cnc3[nH]c(=O)n(-c4ccc5[nH]ccc5c4)c3n2)c1 [CBK064682]	103
Cc1ccc2nc3c(cc(C(=O)NC4CCCC4)c(=N)n3Cc3ccco3)c(=O)n2c1 [CBK265242]	81
Cc1ccccc1OC(C)C(=O)Nc1nnc[nH]1 (centres unmarked) [CBK268605]	85.6
O=C(NC1CCCOC1)c1cnn(-c2ccc(F)cc2)c1 (centres unmarked) [CBK283248]	89.4
Cc1cc(C)n(CCCN(C)Cc2ccc(N3CCCC3=O)cc2)n1 [CBK281827]	88.3
CCC(C)(CC(=O)O)CC(=O)N1CCC2(CC1)OCCc1c2[nH]c2ccccc12 (centres unmarked) [CBK047051]	102
CC(=O)N1CCC[C@H]2NC(=O)CNC(=O)C3(C/C=C/C[C@H]21)CCN(C(=O)C1CCC1)CC3 [CBK292177]	109
CCCc1n[nH]c(O)c1Cc1ccc(OCCCN(C)C)cc1 [CBK116249A]	93.1
O=C(O)C(c1c[nH]c2ccccc12)N1CCN(S(=O)(=O)c2ccccc2)CC1 (centres unmarked) [CBK286643]	83.6
Cc1ccc(NC(=O)c2ccccc2NS(=O)(=O)c2cccc(C(=O)O)c2)cc1 [CBK296695]	122
C=Cn1cc(CN2CCN(C3CCCCC3)C(=O)C2)c(C)n1 [CBK282561]	109
CC(=O)c1ccc(-c2cc(Nc3ccc(O)cc3C)ncn2)s1 [CBK091052]	115
Nc1cccc(-c2nc(NC(=O)c3ccncc3)cnc2-c2ccc(F)c(Cl)c2)c1 [CBK037573]	114

SMILES	viability at 28.5 h, 10 µM [%]
Cc1cccnc1C(NC(=O)C1CCN(C(=O)N2CCCC2)CC1)c1cccs1 (centres unmarked) [CBK060124]	106
CC1Cc2ccccc2N1CCNC(=O)Cc1cn2ccsc2n1 (centres unmarked) [CBK306499]	87.6
O=C(c1cccc(C(F)(F)F)c1)N1CCCC2(CCN(Cc3ccccc3)C2)C1 (centres unmarked) [CBK137039]	90.4
O=C(O)CCCC(=O)N1N=C(c2cccs2)CC1c1cn(-c2ccccc2)nc1-c1ccccc1 (centres unmarked) [CBK296124]	90.3
Nc1cc2cccnc2nc1-c1ccncc1 [CBK067601]	96.5
COc1cc2[nH]c(=S)n3nc(-c4ccncc4)nc3c2cc1OC [CBK288559]	104
COc1ccc(Nc2nc(-c3cc(C(C)C)ccc3OC)cn3ccnc23)cn1 [CBK066354]	84.3
Cc1ccc(S(=O)(=O)NCCCN2CCOCC2)c(C)c1C [CBK264990]	89.7
O=C(/C=C/c1ccc2c(c1)OCO2)NCCSCc1c(F)cccc1Cl [CBK265239]	90.3
Cc1ccc(NS(=O)(=O)c2cccc(C(=O)NS(=O)(=O)c3ccc(F)cc3F)c2)cc1 [CBK297776]	70.5
Cc1ccccc1OCCCNCCN1CCOCC1 [CBK268590C]	106
Cc1ccc(-c2ccc(CCC(=O)O)n2NC(=O)c2ccc([N+](=O)[O-])cc2)cc1 [CBK264776]	109
CN(C)S(=O)(=O)N(CC(=O)NCc1ccco1)c1ccccc1 [CBK267971]	97.3
O=C(NCCCc1nc2cc(F)ccc2[nH]1)[C@@H]1C[C@@H]2C=C[C@H]1C2 [CBK281665]	103
CCN(Cc1ccncc1)C(=O)NCC1CCCCC1 [CBK155132]	103
CCOCc1nc2c(c(NCCn3cccn3)n1)CCN(C(C)=O)CC2 [CBK307707]	98.3
Nc1ncc(-c2ccc(C(=O)N3CCOCC3)cc2)nc1-c1ccc(Cl)s1 [CBK138510]	93.6
O=C(N/N=C\c1cccs1)c1n[nH]c2c1CCCC2 [CBK261667]	110
NC(=O)C(NCc1ccccc1)c1ccc(Cl)cc1 (centres unmarked) [CBK012748]	84
COCC(=O)N1CC[C@H](c2nnc(-c3ccc(C)cc3)o2)C1 [CBK289410]	114
CCn1c(=O)n(CC(=O)Nc2ccccc2F)c2cccnc21 [CBK283897]	102
COc1cc(-c2cnc3cccnc3c2N)cc(OC)c1OC [CBK081190]	93.1

SMILES	viability at 28.5 h, 10 µM [%]
Cc1ccc(C(=O)N2CCN(Cc3cc(=O)n4ccsc4n3)CC2)cn1 [CBK305700]	89.4
Cc1cc(Cl)ccc1OC(C)C(=O)NCc1ccccn1 (centres unmarked) [CBK265441]	98.8
CC(C)S(=O)(=O)n1ccn(-c2ccc(N(C)C)cc2)c1=O [CBK106600]	95.7
COc1ccc(C(=O)Nc2ccc(N3CCNCC3)nc2)cc1 [CBK029434T]	111
Cc1c(C(=O)N(C)Cc2csc(Br)c2)nnn1C1CCNCC1 [CBK304491]	104
O=C(CSc1nnnn1C1CC1)Nc1ccc(CN2CCOCC2)cc1 [CBK305857]	99.2
Cc1noc(C)c1C(=O)N1CCC(c2nc(C)n3ccsc23)CC1 [CBK285239]	101
COCCNC(=O)Cn1c(-c2ccco2)cc2cccnc21 [CBK282720]	80.6
COc1ccccc1-c1nnc2sc(-c3cnccn3)nn12 [CBK268428]	100
OCCOc1ccc(OCCOc2nccnc2N2CCNCC2)cc1 [CBK014349G]	93.9
O=c1oc(-c2cccc(F)c2)nc2ccc(Cc3ccc4nc(-c5cccc(F)c5)oc(=O)c4c3)cc12 [CBK262856]	120
Cc1cc(C(F)(F)F)c2c(NC/C=C/c3ccco3)n[nH]c2n1 [CBK283651]	92.7
COc1ccc(-c2cn3ccnc3c(N3CCCCC3CO)n2)cc1OC (centres unmarked) [CBK066230]	107
COC(=O)c1ccccc1NC(=O)CSc1nnc(-c2sc(N)nc2C)o1 [CBK266250]	100
Cc1cc(NC(=O)CSc2nc3c(c(C(F)(F)F)n2)CCc2ccccc2-3)n(-c2ccccc2)n1 [CBK266086]	106
Oc1ccccc1CN1CCN(Cc2ccccc2O)C1c1ccccc1Br [CBK262050]	98.1
O=C(Nc1ncn(CC(=O)N2CCCCCC2)n1)c1cccs1 [CBK304953]	78.1
Cc1ccccc1N1CCN(Cc2cccc(C(=O)O)c2)CC1 [CBK286890]	90.8
COc1cccc(CNc2nccnc2-c2ccccc2F)c1OC [CBK037993]	98.1
O=C(NCc1cccnc1)c1ccc(N2CCN(C(=O)c3ccccc3C(F)(F)F)CC2)nn1 [CBK153215]	72.3
COC(=O)c1cscc1NC(=O)c1cnc(-c2cccc(C)c2)c(-c2ccc(C(C)=O)s2)c1 [CBK036760]	85.4
Cc1cc2c(cc1C)N(C(=O)CSc1nc3ccccc3[nH]1)C(C)(C)CC2C (centres unmarked) [CBK264144]	98.7

SMILES	viability at 28.5 h, 10 µM [%]
Cc1ccc(OC(C)C(=O)Nc2ccccc2C(=O)N2CCN(C)CC2)cc1 (centres unmarked) [CBK269802]	88.6
CCOC(=O)C(NC(=O)C1CCC(=O)N1)c1cccc(C)c1C (centres unmarked) [CBK305472]	93.8
COc1cc(CNCc2cnn(C)c2)c(O)c(C(C)(C)C)c1 [CBK304721]	85.8
CCOC(=O)C1CCCN(Cc2c(C)nn(C)c2Cl)C1 (centres unmarked) [CBK304838]	92.4
c1ccc(Nc2ccccc2Nc2ccccn2)nc1 [CBK261806]	93.5
CN(CCc1ccncc1)C(=O)c1[nH]nc2c1CCCCC2 [CBK283151]	96.9
CCNC(=O)Nc1ccc(-c2ccc3c(c2)OCCCO3)c2ccccc12 [CBK083726]	89.4
CN1CC(=O)N(c2ccc(Cl)cc2Cl)C1=O [CBK116319]	93
Cc1cc(C)nc(N2CCC(c3cc(CCOc4ccc(C(F)(F)F)cc4)[nH]n3)C2)n1 (centres unmarked) [CBK286073]	93.5
CC1=C(C(=O)Nc2ccccc2)C(c2cccs2)C(C#N)=C(SCC(=O)c2ccc(Br)cc2)N1 (centres unmarked) [CBK261384]	104
O=C(NC(=O)C1CCNCC1)Nc1ccc(F)cc1F [CBK034793]	115
Cn1c(=O)oc2cc(S(=O)(=O)Nc3cccc(CCc4ccccn4)c3)ccc21 [CBK286357]	102
CCn1cncc1C(=O)N1CCCC1(C)C(=O)NC1CCCC1 (centres unmarked) [CBK281376]	81.2
CCC(=O)Nc1nc(-c2ccco2)c(-c2ccncc2)s1 [CBK284495]	101
Nc1ncc(-c2cccc3cccnc23)nc1NCc1ccncc1 [CBK063622]	87.4
CCN1C(=O)N(CC)C2C1NC(=O)N2CCCC(=O)O (centres unmarked) [CBK287131]	89.3
OCCNCc1cc(Br)ccc1OCc1ccc(F)cc1 [CBK266421C]	96
COC(=O)N/N=C(/C)c1ccc(C)cc1 [CBK016149]	109
O=C(c1ccc2[nH]c(=O)[nH]c2c1)N1CCC2(CCN(C(=O)c3cc(F)c(F)cc3F)C2)C1 (centres unmarked) [CBK131407]	95.9
CC(C)n1c(=O)n(CC(=O)N2CCCCCC2)c2cccnc21 [CBK283527]	92.4
CCc1cc(NC[C@@H](O)CO)nc(-c2ccc(F)c(Cl)c2)n1 [CBK132880]	74.4
CC(C)(C)c1ccc(-c2cnc3nc(O)ccc3c2)cc1 [CBK081284]	74.6

Same assay, conditions: human, hela cells, % viability, bulk resorufin, single well

SMILES	viability at 28.5 h, 10 µM [%]
COc1ccc2c(c1)COC1(CCN(C(=O)NC(=O)c3ccccc3)CC1)O2 [CBK060804]	95.7
